Publication PMC7025647, “Identifying the Naphthalene-Based Compound 3,5-Dihydroxy 2-Napthoic Acid as a Novel Lead Compound for Designing Lactate Dehydrogenase-Specific Antibabesial Drug” (Frontiers in Pharmacology, 2020)
Several values for one entry are separate records, joined by “and”; a condition that tells them apart may be missing. Identical values can stand only once. Like-named read-outs stand apart in the source and are kept apart here. Blank lines part the entries; values can stand above or below the compound they belong to.

Key:
[1] = tested on: B. microti ATCC PRA-99 strain; assay: Growth inhibition of B. microti in vitro; assay type: cell-based, Babesia microti; conditions: for IC50: Babesia microti
Protocol: (§1) Three BALB/c mice were intraperitoneally injected with 1 x 10^7 parasites (100 μl fresh blood), and their blood was collected from the tail when parasitemia reached ~60% at day 7 post-infection. The growth inhibition assay of B. microti in vitro was performed by incubating freshly isolated infected mouse red blood cells (RBCs) with varying concentrations of the drugs. Briefly, […] infected mouse RBCs was diluted with 5 μl non-infected mouse RBCs and 10 μl non-infected human RBCs to achieve ~3% parasitemia in a total of 40 μl and suspended in 110 μl of a growth medium (20% bovine serum and 80% medium HL20) containing the indicated concentrations of drugs (50, 100, and 250 μM). The cultures were maintained at 37°C for 72 h in a gas mixture of 2% O2, 5% CO2, and 93% N2. Two naphthalene-based compounds DBHCA and DHNA were prepared as 100 mM stock solutions in DMSO and further diluted with growth medium. Each concentration of the compounds was tested in triplicate, while three wells received a drug-free culture medium as a control. 10 μM diminazene aceturate (DA) was selected as a positive control. Parasitemia was determined at 72 h post-treatment by enumerating a total of at least 1,000 RBCs in a Giemsa-stained thin smear. Differences in the percent parasitemia were statistically analyzed using one-way ANOVA analysis, and the IC50 values were calculated manually for obtaining more reliable data (Käber method). The hemolysis of DBHCA and DHNA against B. microti-free erythrocytes was monitored by cell counting chamber at 72 h post-treatment. All the experiments were separately repeated three times.

[2] = target: recombinant BmLDH (rBmLDH) (Babesia microti, UniProt I7J7V6); assay: biochemical; assay type: biochemical; conditions: for selectivity over human LDH: rBmLDH vs human LDH
Protocol: The enzyme activity of rBmLDH was analyzed using Lactate Dehydrogenase Activity Assay Kit (Sigma-Aldrich, Shanghai, China) according to the manufacturer’s instruction. Briefly, the enzymatic activity of BmLDH was detected by catalyzing the conversion of lactate to pyruvate, with concomitant reduction of NAD^+ to NADH. The coupled reaction was followed by measuring absorbance at 450 nm and at 37°C. Three naphthalene-based compounds [2,6-naphthalenedicarboxylic acid (NDCA), 1,6-dibromo-2-hydroxynapthalene 3-carboxylic acid (DBHCA), and 3,5-dihydroxy 2-napthoic acid (DHNA)] were purchased from Sigma-Aldrich (Shanghai, China) with 99% purity for NDCA and 97% purity for DBHCA and DHNA. In the inhibitory analysis, three naphthalene-based compounds were prepared as 100 mM stock solution in 100% dimethylsulfoxide (DMSO) ( Table 2 ).
The half-maximal inhibitory concentration (IC50) values were determined in the presence of various concentrations of the three naphthalene-based compounds. […] The absorbance Tinitia and Tfinal (5 min) was measured at 450 nm. XY graphs were drawn by linear regression and error bars represent means ± SD of three independent experiments.

[3] = target: human lactate dehydrogenase (HmLDH); parameters: method as in Conners et al., 2005; conditions: ref Conners et al., 2005; cited from earlier work
rBmLDH = rBmLDH (Babesia microti, UniProt I7J7V6); assay: Surface plasmon resonance binding kinetics (Biacore T200); conditions: for koff: read-out: k d
Protocol: The binding properties of the rBmLDH against DBHCA and DHNA were measured separately by SPR experiment with a Biacore T200 system (GE Healthcare, Uppsala, Sweden). Briefly, a sensor chip CM5 was put into a Biacore T200 system and washed with the running buffer (PBST+0.5% DMSO, pH7.5). The CM5 chip was activated by injecting the mixture of 0.1 M N-hydroxysuccinimide (NHS) and 0.4 M 1-ethyl-3-(3-dimethylaminopropyl) carbodiimide hydrochloride (EDC) (1:1, v/v) at a flow rate of 10 μl·min^−1 for 20 min. Then, the rBmLDH diluted to 10 μg·ml^−1 with 10 mM sodium acetate buffer (pH 4.0, 4.5, 5.0, and 5.5) was covalently immobilized on the CM5 chip at a flow rate of 10 μl·min^−1 until the immobilization level of BmLDH reached 2,100 resonance units (RU). Ethanolamine solution was injected to block the remaining unreacted esters. Flow cell 1 was activated and blocked as the reference surface, while flow cell 2 served as the experimental surface. The 100 mM stocks of the two small molecule compounds were further diluted with PBST into 500, 250, 125, 62.5, 31.25, and 15.625 μM. The surface of CM5 sensor chip was fully regenerated using 10 mM glycine pH2.5 at a flow rate of 30 μl min^−1 for 30 s. The SPR kinetic experiments were performed three times and the values were presented as the mean ± SD of three independent experiments.
For binding kinetic assays, standard solutions of two naphthalene-based compounds (DBHCA and DHNA) at different concentrations were tested and the data were fitted with a 1:1 binding kinetic model.

[4] = tested on: B. microti-free erythrocytes; assay: Hemolysis of B. microti-free erythrocytes; assay type: cell-based; conditions: drug levels up to 250 µM, 72 h post-treatment
Protocol: as §1, with “Each concentration of the compounds was tested in triplicate, while three wells received a drug-free culture medium as a control. 10 μM diminazene aceturate (DA) was selected as a positive control.” left out, “All the experiments were separately repeated three times.” left out

Vero cells = assay: Cytotoxicity test by MTT method; assay type: cell-based, African green monkey; conditions: for SI (selectivity index): between B. microti and Vero cells
Protocol: (§2) Mycoplasma-free Vero cell line (ATCC-CCL-81, immortalized cells) was preserved in liquid nitrogen with the additive of DMSO in the State Key Laboratory of Agricultural Microbiology, Huazhong Agricultural University, China. […] After adding 10 µl MTT (5 mg/ml in medium) into each test well, the plate was further incubated for another 2 h, followed by removing the culture from the incubator and discarding the medium. […] The plate was gently mixed on a gyratory shaker for 10 min and the absorbances were measured at a wavelength of 570 nm using a microplate reader (BioTek, Vermont, USA). The background absorbances of the multi-well plate at 690 nm were subtracted from the 570 nm measurement. […] The CC50 values were calculated using GraphPad Prism 5 (San Diego, CA, USA), and all the cytotoxicity tests were performed three times.

[5] = Cytotoxicity test by MTT method; assay type: cell-based, African green monkey; conditions: African green monkey, Vero cells (ATCC-CCL-81), MTT, 72 h
Protocol: as §2

[6] = tested on: Plasmodium falciparum lactate dehydrogenase (PfLDH); conditions: 2005, cited from earlier work; for IC50: ref Conners et al.
[7] = tested on: glyceraldehyde-3-phosphate dehydrogenase; parameters: method as in Deck et al., 1998; Rellinger et al., 2017; conditions: even at high concentrations; ref Deck et al., 1998; Rellinger et al., 2017; cited from earlier work
human LDH-B = tested on: human LDH-B; parameters: method as in Deck et al., 1998; Rellinger et al., 2017; conditions: even at high concentrations; ref Deck et al., 1998; Rellinger et al., 2017; cited from earlier work
BmLDH = target: BmLDH; parameters: method as in Yu et al., 2019; conditions: ref Yu et al., 2019; read-out: K i against BmLDH; cited from earlier work
LDH-A4 = conditions: mammalian LDHs, competitive with NADH binding; read-out: K i for LDH-A4; cited from earlier work
B. microti = tested on: B. microti; parameters: method as in Yu et al., 2019; conditions: ref Yu et al., 2019; read-out: IC50 against B. microti in vitro; cited from earlier work
Plasmodium falciparum = tested on: Plasmodium falciparum; parameters: method as in Vivas et al., 2005; conditions: ref Vivas et al., 2005; read-out: IC50 against growth of P. falciparum in vitro; cited from earlier work
BbLDH = conditions: read-out: K i against BbLDH; ref Bork et al., 2004; cited from earlier work
LDH-C4 = conditions: mammalian LDHs, competitive with NADH binding; read-out: K i for LDH-C4; cited from earlier work
Babesia bovis = tested on: Babesia bovis; parameters: method as in Bork et al., 2004; conditions: ref Bork et al., 2004; read-out: IC50 in vitro against B. bovis; cited from earlier work
LDH-B4 = conditions: mammalian LDHs, competitive with NADH binding; read-out: K i for LDH-B4; cited from earlier work
[8] = 72 h post-treatment, Giemsa smear parasitemia, read-out: IC50 against growth of B. microti in vitro
[9] = asexual blood stage, 72 h, read-out: PRA-99 IC50
[10] = SPR, 1:1 binding model, rBmLDH immobilized on CM5
[11] = rBmLDH 100 ng, lactate to pyruvate, absorbance 450 nm, 37°C, read-out: BmLDH IC50

Chain of rBmLDH (I7J7V6 entry or part of it): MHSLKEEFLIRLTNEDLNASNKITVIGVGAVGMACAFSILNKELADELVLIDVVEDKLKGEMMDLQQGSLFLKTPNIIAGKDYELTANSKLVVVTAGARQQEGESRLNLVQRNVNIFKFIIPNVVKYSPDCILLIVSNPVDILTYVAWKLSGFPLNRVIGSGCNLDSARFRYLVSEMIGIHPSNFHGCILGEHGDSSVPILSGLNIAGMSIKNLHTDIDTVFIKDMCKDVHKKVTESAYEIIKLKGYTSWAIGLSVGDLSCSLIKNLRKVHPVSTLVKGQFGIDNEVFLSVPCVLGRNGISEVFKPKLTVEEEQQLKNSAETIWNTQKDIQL
Chain of recombinant BmLDH (rBmLDH) (I7J7V6 entry or part of it): as above

SMILES: CC(=O)NCC(=O)O.CC(=O)NCC(=O)O.N=C(N)c1ccc(N=NNc2ccc(C(=N)N)cc2)cc1 [DA, diminazene aceturate, reference compound]
inhibition of growth of the parasite ([1]; positive control at 10 μM, 72 h): ~ 75.54%

SMILES: O=C(O)c1cc2cc(Br)ccc2c(Br)c1O [DBHCA, 1,6-Dibromo-2-hydroxynapthalene 3-carboxylic acid]
IC50 ([2]; BmLDH IC50, rBmLDH 100 ng, lactate to pyruvate, absorbance 450 nm, 37°C): 54 µM
IC50 ([2]; IC50 against BmLDH activity, rBmLDH, mean ± SD of three experiments): 53.9 ± 13.3 µM
selectivity over human LDH [2]: ~ 109 fold
IC50 [3]: 5900 µM
IC50 [1, 8]: 84.8 µM
IC50 [1, 9]: 85 µM
Kd (rBmLDH): 0.0399 µM
kon (rBmLDH; SPR, 1:1 binding model, rBmLDH immobilized on CM5, read-out: k a): 37700 M⁻¹ s⁻¹
koff (rBmLDH; [10]): 0.0015 s⁻¹
cellular hemolysis [4]: no cellular hemolysis
SI (selectivity index) (Vero cells): 2.6
CC50 at 72 h ([5]; read-out: CC50 Vero): 217 µM
CC50 at 72 h ([5]; read-out: CC50 in Vero cells): 216 ± 18 µM
IC50 [6]: 310 µM

inhibition at 60 µM ([2]; at ~60 μM, read-out: rBmLDH activity inhibited): 100%
IC50 [2, 11]: 30 µM
selectivity over PfLDH ([2]; rBmLDH vs PfLDH): ~ 57 fold
selectivity over human LDH [2]: ~ 5,000 fold
IC50 ([2]; rBmLDH, mean ± SD of three experiments, read-out: IC50 against BmLDH activity): 30.2 ± 8.49 µM
IC50 [1, 8]: 85.7 µM
IC50 [1, 9]: 86 µM
k a (rBmLDH; [10]): 20.49 1/Ms and 20.49 ± 4.18 × 10^−1 1/Ms
Kd (rBmLDH; SPR, 1:1 binding model, rBmLDH immobilized on CM5, read-out: K D): 37.7 µM
koff (rBmLDH; [10]): 0.000772 s⁻¹
SMILES: O=C(O)c1cc2cccc(O)c2cc1O [DHNA, 3,5-Dihydroxy 2-napthoic acid]
cellular hemolysis [4]: no cellular hemolysis
SI (selectivity index) (Vero cells): 22.1
CC50 at 72 h ([5]; read-out: CC50 Vero): 1900 µM
IC50 [6]: 1700 µM

SMILES: CCCc1c(O)c(O)c(C(=O)O)c2cc(Cc3ccccc3)c(C)cc12 [FX11]
inhibition of glyceraldehyde-3-phosphate dehydrogenase [7]: not
inhibition of human LDH-B (human LDH-B): not

inhibitory effect on the BmLDH activity ([2]; even at the high concentration of 500 μM): no inhibitory effect
IC50 [2, 11]: > 500 µM
SMILES: O=C(O)c1ccc2cc(C(=O)O)ccc2c1 [NDCA, 2,6-Naphthalenedicarboxylic acid]
IC50 [3]: 1400 µM
IC50 [6]: 5100 µM

SMILES: COc1cccc2c1C(=O)c1c(O)c3c(c(O)c1C2=O)C[C@@](O)(C(=O)CO)C[C@@H]3O[C@H]1C[C@H](N)[C@H](O)[C@H](C)O1 [doxorubicin, reference compound]
inhibition at 3 µM (Vero cells; Chlorocebus sabaeus, Vero, positive control at 3 µM, read-out: inhibition of growth of Vero cells): ~95%

SMILES: Cc1cc2c(C(C)C)c(O)c(O)c(C=O)c2c(O)c1-c1c(C)cc2c(C(C)C)c(O)c(O)c(C=O)c2c1O [gossypol]
Ki (BmLDH): 0.67 µM
inhibition at 0.7 µM ([2]; read-out: inhibition of the catalytic activity of BmLDH): ~100%
Ki (LDH-A4): 1.9 µM
IC50 (B. microti): 7.07 µM
IC50 (Plasmodium falciparum): 15.3 µM
Ki (BbLDH): 0.085 µM
Ki (LDH-C4): 4.2 µM
Ki ([6]; competitive, ref Vivas et al., read-out: K i against PfLDH): 0.7 µM
IC50 (Babesia bovis): 50 µM
Ki (LDH-B4): 1.4 µM
